Reference: PubChem BioAssay (NCI)
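GI50: concentration for 50% inhibition of growth. TGI denotes the concentration required for complete inhibition of growth.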

How the values were obtained:
Test in all cases: DTP human tumour cell line panel, 384-well format
[1] = system: MOLT-4 leukemia
[2] = system: OVCAR-3 ovarian
[3] = system: RXF 393 renal
[4] = system: SF-268 CNS
[5] = system: MDA-MB-435 melanoma
[6] = system: SNB-75 CNS
[7] = system: HCT-116 colon
[8] = system: NCI-H322M lung
[9] = system: 786-0 renal
[10] = system: HL-60(TB) leukemia
[11] = system: MDA-MB-468 breast
[12] = system: HT29 colon
[13] = system: SK-MEL-5 melanoma
[14] = system: RPMI-8226 leukemia
[15] = system: LOX IMVI melanoma
[16] = system: OVCAR-4 ovarian
[17] = system: BT-549 breast
[18] = system: UACC-62 melanoma
[19] = system: K-562 leukemia
[20] = system: HCC-2998 colon
[21] = system: SR leukemia
[22] = system: OVCAR-8 ovarian
[23] = system: PC-3 prostate
[24] = system: KM12 colon
[25] = system: IGROV1 ovarian
[26] = system: SK-OV-3 ovarian
[27] = system: MCF7 breast
[28] = system: U251 glioblastoma
[29] = system: HS 578T breast
[30] = system: MALME-3M melanoma
[31] = system: HOP-62 NSCLC
[32] = system: SN12C renal
[33] = system: SNB-19 CNS
[34] = system: TK-10 renal
[35] = system: EKVX NSCLC
[36] = system: NCI-H460 NSCLC
[37] = system: MDA-MB-231 breast
[38] = system: SK-MEL-28 melanoma
[39] = system: M14 melanoma
[40] = system: HCT-15 colon
[41] = system: SF-539 CNS
[42] = system: NCI/ADR-RES ovarian
[43] = system: COLO 205 colon
[44] = system: A549 NSCLC
[45] = system: A498 renal
[46] = system: UACC-257 melanoma
[47] = system: SK-MEL-2 melanoma
[48] = system: NCI-H23 lung
[49] = system: CCRF-CEM leukemia
[50] = system: HOP-92 NSCLC
[51] = system: CAKI-1 renal
[52] = system: T-47D breast
[53] = system: DU-145 prostate
[54] = system: ACHN renal
[55] = system: NCI-H522 lung
[56] = system: UO-31 renal
[57] = system: OVCAR-5 ovarian
[58] = system: SF-295 CNS
[59] = system: NCI-H226 lung
[60] = system: SW-620 colon

Question: Which results are given for `CN(c1ncccc1CNc1nc(Nc2ccc3c(c2)CC(=O)N3)ncc1C(F)(F)F)S(C)(=O)=O`?
Answer: GI50 [1]: 0.431 µM; TGI [1]: 1.3 µM; GI50 [2]: 2 µM; TGI [2]: 4.74 µM; GI50 [3]: 1.2 µM; TGI [3]: 2.69 µM; GI50 [4]: 1.82 µM; TGI [4]: 3.99 µM; GI50 [5]: 2.29 µM; TGI [5]: 7.7 µM; GI50 [6]: 1.55 µM; TGI [6]: 3.6 µM; GI50 [7]: 1.89 µM; TGI [7]: > 100 µM; GI50 [8]: 2.01 µM; TGI [8]: 4.45 µM; GI50 [9]: 2.44 µM; TGI [9]: 7.78 µM; GI50 [10]: 1.7 µM; TGI [10]: 3.09 µM; GI50 [11]: 1.85 µM; TGI [11]: 3.38 µM; GI50 [12]: 3.74 µM; TGI [12]: > 100 µM; GI50 [13]: 1.63 µM; TGI [13]: 3.11 µM; GI50 [14]: 1.66 µM; TGI [14]: 3.03 µM; GI50 [15]: 1.54 µM; TGI [15]: 3.58 µM; GI50 [16]: 2.48 µM; TGI [16]: 8.64 µM; GI50 [17]: 1.74 µM; TGI [17]: 3.88 µM; GI50 [18]: 1.39 µM; TGI [18]: 2.86 µM; GI50 [19]: 2.83 µM; TGI [19]: > 100 µM; GI50 [20]: 1.19 µM; TGI [20]: 3.21 µM; GI50 [21]: 0.501 µM; TGI [21]: 1.67 µM; GI50 [22]: 3.31 µM; TGI [22]: > 100 µM; GI50 [23]: 2.51 µM; TGI [23]: > 100 µM; GI50 [24]: 0.218 µM; TGI [24]: 1.72 µM; GI50 [25]: 2.42 µM; TGI [25]: > 100 µM; GI50 [26]: 3.1 µM; TGI [26]: > 100 µM; GI50 [27]: 1.02 µM; TGI [27]: 8.25 µM; GI50 [28]: 2.88 µM; TGI [28]: > 100 µM; GI50 [29]: 1.62 µM; TGI [29]: 3.7 µM; GI50 [30]: 2.2 µM; TGI [30]: 4.94 µM; GI50 [31]: 1.97 µM; TGI [31]: 7.83 µM; GI50 [32]: 2.4 µM; TGI [32]: 5.72 µM; GI50 [33]: 3.39 µM; TGI [33]: > 100 µM; GI50 [34]: 2.79 µM; TGI [34]: > 100 µM; GI50 [35]: 1.49 µM; TGI [35]: 4.17 µM; GI50 [36]: 1.61 µM; TGI [36]: 3.29 µM; GI50 [37]: 2.55 µM; TGI [37]: > 100 µM; GI50 [38]: 1.85 µM; TGI [38]: 4.2 µM; GI50 [39]: 1.75 µM; TGI [39]: 4.24 µM; GI50 [40]: 3.81 µM; TGI [40]: 17 µM; GI50 [41]: 1.86 µM; TGI [41]: 3.7 µM; GI50 [42]: 26 µM; TGI [42]: 95.6 µM; GI50 [43]: 1.46 µM; TGI [43]: 4.28 µM; GI50 [44]: 3.15 µM; TGI [44]: > 100 µM; GI50 [45]: 2.91 µM; TGI [45]: > 100 µM; GI50 [46]: 2.01 µM; TGI [46]: 4.34 µM; GI50 [47]: 1.85 µM; TGI [47]: 3.58 µM; GI50 [48]: 1.79 µM; TGI [48]: 3.34 µM; GI50 [49]: 1.71 µM; TGI [49]: 3.33 µM

Question: What does the source list for `O=C(Nc1ccc2[nH]nc(-c3ccncc3)c2c1)[C@@H]1CCN(CC(=O)N2CCN(c3ccc(-c4ncccn4)cc3)CC2)C1`?
Answer: GI50 [1]: 1.42 µM; TGI [1]: 3 µM; GI50 [2]: 19.8 µM; TGI [2]: > 100 µM; GI50 [3]: 1.05 µM; TGI [3]: 3.55 µM; GI50 [50]: 0.417 µM; TGI [50]: 2.18 µM; GI50 [51]: 0.507 µM; TGI [51]: 20.6 µM; GI50 [4]: 17.9 µM; TGI [4]: 73.4 µM; GI50 [5]: 0.0652 µM; TGI [5]: > 100 µM; GI50 [6]: 11.6 µM; TGI [6]: 25.4 µM; GI50 [7]: 0.0687 µM; TGI [7]: 1.26 µM; GI50 [8]: 0.623 µM; TGI [8]: 31.6 µM; GI50 [9]: 9.92 µM; TGI [9]: 23.6 µM; GI50 [10]: 0.0163 µM; TGI [10]: 1.26 µM; GI50 [52]: 2.96 µM; TGI [52]: 9.04 µM; GI50 [11]: 3.55 µM; TGI [11]: 33.8 µM; GI50 [12]: 0.069 µM; TGI [12]: 14.2 µM; GI50 [13]: 0.0781 µM; TGI [13]: 4.43 µM; GI50 [16]: 48.4 µM; TGI [16]: > 100 µM; GI50 [53]: 4.59 µM; TGI [53]: > 100 µM; GI50 [17]: 2.71 µM; TGI [17]: 16.6 µM; GI50 [18]: 0.0166 µM; TGI [18]: 0.385 µM; GI50 [19]: 0.273 µM; TGI [19]: 12.8 µM; GI50 [54]: 8.76 µM; TGI [54]: > 100 µM; GI50 [21]: 2.68 µM; TGI [21]: 12 µM; GI50 [22]: 2.83 µM; TGI [22]: 15 µM; GI50 [23]: 5.37 µM; TGI [23]: 20.5 µM; GI50 [24]: 5.61 µM; TGI [24]: > 100 µM; GI50 [25]: 0.438 µM; TGI [25]: 35.7 µM; GI50 [26]: 20.3 µM; TGI [26]: 90.7 µM; GI50 [27]: 11.6 µM; TGI [27]: 26.9 µM; GI50 [55]: 9.33 µM; TGI [55]: 22.1 µM; GI50 [28]: 1.79 µM; TGI [28]: 22.2 µM; GI50 [29]: 10.8 µM; TGI [29]: 36 µM; GI50 [56]: 2.28 µM; TGI [56]: 16.1 µM; TGI [30]: 0.0442 µM; GI50 [31]: 0.661 µM; TGI [31]: 17.4 µM; GI50 [32]: 2.28 µM; TGI [32]: > 100 µM; GI50 [33]: > 100 µM; TGI [33]: > 100 µM; GI50 [34]: 0.853 µM; TGI [34]: > 100 µM; GI50 [35]: 2.28 µM; TGI [35]: 83 µM; GI50 [57]: 0.16 µM; TGI [57]: > 100 µM; GI50 [36]: 0.379 µM; TGI [36]: 17.6 µM; GI50 [37]: 0.315 µM; TGI [37]: 32.9 µM; GI50 [38]: 0.0186 µM; TGI [38]: 0.174 µM; GI50 [39]: 0.0253 µM; TGI [39]: 0.198 µM; GI50 [40]: 5.45 µM; TGI [40]: 29.1 µM; GI50 [41]: 0.69 µM; TGI [41]: 9.72 µM; GI50 [43]: 0.0281 µM; TGI [43]: 0.43 µM; GI50 [58]: 13.1 µM; TGI [58]: 37.8 µM; GI50 [44]: 0.628 µM; TGI [44]: > 100 µM; GI50 [59]: 0.735 µM; TGI [59]: 14.6 µM; GI50 [60]: 0.0863 µM; TGI [60]: > 100 µM; GI50 [45]: 1.78 µM; TGI [45]: 10 µM; GI50 [46]: 0.0268 µM; TGI [46]: 0.271 µM; GI50 [47]: 0.0375 µM; TGI [47]: 0.192 µM; GI50 [48]: 0.0571 µM; TGI [48]: 0.678 µM
